According to the supplement of paper PMC11061612:

How the values were obtained:
Assay in all cases: combination Emax (second highest fraction inhibited in the dose matrix, 72 h); higher = more inhibition; extreme values may be limits of the assay
[1] = test system: KYSE-70 (Esophageal Squamous Cell Carcinoma)
In short: (§1)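 Cell lines in DMEM/F12 or RPMI with 10% FBS were plated in 1536-well plates, held 24 hours at 37°C, 5% CO2, then given two-drug dose matrices for 72 hours (DMSO typically 0.2%). Viability was read by CellTiter-Glo 2.0 luminescence and scaled as inhibition from 0 (vehicle wells) to 1 (blank wells). Combination Emax is the second-highest inhibition in the matrix; Bliss excess is observed combination effect minus expected EA + EB − EA·EB, EA and EB being single-agent effects.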

[2] = test system: Becker (Low Grade Glioma)
In short: as §1

[3] = test system: BALL-1 (B-Lymphoblastic Leukemia)
In short: as §1

[4] = test system: PANC-02-03 (Pancreatic Carcinoma)
In short: as §1

[5] = test system: RMG-I (Ovarian Carcinoma)
In short: as §1

[6] = test system: AN3-CA (Endometrial Carcinoma)
In short: as §1

[7] = test system: RL95-2 (Endometrial Carcinoma)
In short: as §1

[8] = test system: EB-3 (Burkitt's Lymphoma)
In short: as §1

[9] = test system: NKM-1 (Acute Myeloid Leukemia)
In short: as §1

[10] = test system: NCI-H1563 (Lung Adenocarcinoma)
In short: as §1

[11] = test system: COLO-684 (Endometrial Carcinoma)
In short: as §1

[12] = test system: CML-T1 (Chronic Myelogenous Leukemia)
In short: as §1

[13] = test system: CHL-1 (Melanoma)
In short: as §1

[14] = test system: HuO-3N1 (Osteosarcoma)
In short: as §1

[15] = test system: NCI-H1623 (Lung Adenocarcinoma)
In short: as §1

[16] = test system: RERF-LC-KJ (Lung Adenocarcinoma)
In short: as §1

[17] = test system: KYM-1 (Rhabdomyosarcoma)
In short: as §1

[18] = test system: SNU-175 (Colorectal Carcinoma)
In short: as §1

[19] = test system: PC-14 (Lung Adenocarcinoma)
In short: as §1

[20] = test system: NCI-H196 (Small Cell Lung Carcinoma)
In short: as §1

SMILES | combination Emax [1] | combination Emax [2] | combination Emax [3] | combination Emax [4] | combination Emax [5] | combination Emax [6] | combination Emax [7] | combination Emax [8] | combination Emax [9] | combination Emax [10] | combination Emax [11] | combination Emax [12] | combination Emax [13] | combination Emax [14] | combination Emax [15] | combination Emax [16] | combination Emax [17] | combination Emax [18] | combination Emax [19] | combination Emax [20]
CC(=O)c1c(C)c2cnc(Nc3ccc(N4CCNCC4)cn3)nc2n(C2CCCC2)c1=O [Palbociclib] + Cc1c2c(nn1C)CSCc1cc(n(C)n1)CSc1cc(c3ccccc3c1)OCCCc1c(C(=O)O)n(C)c3c-2c(Cl)ccc13 [AZD5991] (first compound max 10 µM, 7x7, partner max 1 µM) | 0.157 | 0.428 | 0.777 | 0.182 | 0.306 | 0.886 | 0.939 | 0.435 | 0.994 | 0.609 | 0.321 | 0.924 | 0.691 | 0.508 | 0.818 | 0.288 | 0.947 | 0.652 | 0.279 | 0.126
Cc1c2c(nn1C)CSCc1cc(n(C)n1)CSc1cc(c3ccccc3c1)OCCCc1c(C(=O)O)n(C)c3c-2c(Cl)ccc13 [AZD5991] + C[C@@H]1COCCN1C2=NC(=NC(=C2)C3(CC3)[S@](=N)(=O)C)C4=C5C=CNC5=NC=C4 [AZD6738] (first compound max 1 µM, 7x7, partner max 10 µM) | 0.379 | 0.632 | 1 | 0.528 | 0.544 | 0.823 | 1 | 0.604 | 0.995 | 0.774 | 0.741 | 0.96 | 0.906 | 0.894 | 0.997 | 0.465 | 0.924 | 0.862 | 0.855 | 0.367
CC(=O)c1c(C)c2cnc(Nc3ccc(N4CCNCC4)cn3)nc2n(C2CCCC2)c1=O [Palbociclib] + CC1(C)CCC(CN2CCN(c3ccc(C(=O)NS(=O)(=O)c4ccc(NCC5CCOCC5)c([N+](=O)[O-])c4)c(Oc4cnc5[nH]ccc5c4)c3)CC2)=C(c2ccc(Cl)cc2)C1 [Venetoclax] (first compound max 10 µM, 7x7, partner max 1 µM) | 0.11 | 0.249 | 1 | 0.148 | 0.277 | 0.255 | 0.226 | 0.329 | 0.946 | 0.313 | 0.193 | 0.932 | 0.0898 | 0.146 | 0.248 | 0.117 | 0.863 | 0.562 | 0.204 | 0.0487
NC1(C(=O)N[C@@H](CCO)c2ccc(Cl)cc2)CCN(c2ncnc3[nH]ccc23)CC1 [Capivasertib] + CC(=O)c1c(C)c2cnc(Nc3ccc(N4CCNCC4)cn3)nc2n(C2CCCC2)c1=O [Palbociclib] (first compound max 10 µM, 7x7, partner max 10 µM) | 0.377 | 0.624 | 0.597 | 0.202 | 0.288 | 0.803 | 0.904 | 0.428 | 0.796 | 0.47 | 0.632 | 0.939 | 0.191 | 0.432 | 0.506 | 0.436 | 0.85 | 0.634 | 0.582 | 0.258
Cc1cc2ncnn2cc1Nc1ncc2c(n1)n(C1CCOCC1)c(=O)n2C [AZD7648] + C[C@@H]1COCCN1C2=NC(=NC(=C2)C3(CC3)[S@](=N)(=O)C)C4=C5C=CNC5=NC=C4 [AZD6738] (first compound max 10 µM, 7x7, partner max 10 µM) | 0.414 | 0.607 | 0.986 | 0.555 | 0.53 | 0.435 | 0.592 | 0.663 | 0.839 | 0.498 | 0.764 | 0.936 | 0.798 | 0.331 | 0.588 | 0.349 | 0.697 | 0.537 | 0.805 | 0.365
NC1(C(=O)N[C@@H](CCO)c2ccc(Cl)cc2)CCN(c2ncnc3[nH]ccc23)CC1 [Capivasertib] + CCN(CCO)CCCOc1ccc2c(Nc3cc(CC(=O)Nc4cccc(F)c4)[nH]n3)ncnc2c1 [AZD2811] (first compound max 10 µM, 7x7, partner max 1 µM) | 0.272 | 0.535 | 0.74 | 0.24 | 0.315 | 0.786 | 1 | 0.458 | 0.779 | 0.441 | 0.659 | 0.9 | 0.567 | 0.494 | 0.555 | 0.503 | 0.559 | 0.846 | 0.505 | 0.358
CC1(C)CCC(CN2CCN(c3ccc(C(=O)NS(=O)(=O)c4ccc(NCC5CCOCC5)c([N+](=O)[O-])c4)c(Oc4cnc5[nH]ccc5c4)c3)CC2)=C(c2ccc(Cl)cc2)C1 [Venetoclax] + Cn1cnc2c(F)c(Nc3ccc(Br)cc3Cl)c(C(=O)NOCCO)cc21 [Selumetinib] (first compound max 1 µM, 7x7, partner max 3 µM) | 0.19 | 0.215 | 1 | 0.367 | 0.267 | 0.204 | 0.332 | 0.154 | 0.975 | 0.242 | 0.0813 | 0.957 | 0.0922 | 0.146 | 0.256 | 0.185 | 0.124 | 0.313 | 0.22 | 0.077
C=CCn1c(=O)c2cnc(Nc3ccc(N4CCN(C)CC4)cc3)nc2n1-c1cccc(C(C)(C)O)n1 [AZD1775] + O=C(c1cc(Cc2n[nH]c(=O)c3ccccc23)ccc1F)N1CCN(C(=O)C2CC2)CC1 [Olaparib] (first compound max 1 µM, partner max 10 µM) | 0.655 | 0.216 | 0.985 | 0.667 | 0.365 | 0.339 | 0.486 | 0.73 | 0.945 | 0.215 | 0.625 | 0.962 | 0.528 | 0.2 | 0.605 | 0.276 | 0.563 | 0.447 | 0.887 | 0.536
C=CCn1c(=O)c2cnc(Nc3ccc(N4CCN(C)CC4)cc3)nc2n1-c1cccc(C(C)(C)O)n1 [AZD1775] + C[C@@H]1COCCN1C2=NC(=NC(=C2)C3(CC3)[S@](=N)(=O)C)C4=C5C=CNC5=NC=C4 [AZD6738] (first compound max 1 µM, partner max 10 µM) | 0.656 | 0.678 | 0.988 | 0.728 | 0.686 | 0.714 | 0.914 | 0.855 | 0.983 | 0.446 | 0.851 | 0.971 | 0.84 | 0.5 | 0.74 | 0.413 | 0.837 | 0.702 | 0.918 | 0.53
CC1(C)CCC(CN2CCN(c3ccc(C(=O)NS(=O)(=O)c4ccc(NCC5CCOCC5)c([N+](=O)[O-])c4)c(Oc4cnc5[nH]ccc5c4)c3)CC2)=C(c2ccc(Cl)cc2)C1 [Venetoclax] + Cc1cc2ncnn2cc1Nc1ncc2c(n1)n(C1CCOCC1)c(=O)n2C [AZD7648] (first compound max 1 µM, 7x7, partner max 10 µM) | 0.169 | 0.19 | 1 | 0.208 | 0.312 | 0.411 | 0.194 | 0.477 | 0.959 | 0.391 | 0.349 | 0.93 | 0.215 | 0.228 | 0.371 | 0.357 | 0.159 | 0.131 | 0.293 | 0.121
Cc1c2c(nn1C)CSCc1cc(n(C)n1)CSc1cc(c3ccccc3c1)OCCCc1c(C(=O)O)n(C)c3c-2c(Cl)ccc13 [AZD5991] + C1CN(CCC1(C(=O)N[C@@H](CCO)C2=CC=C(C=C2)Cl)N)C3=NC=NC4=C3C=CN4 [Capivasertib] (first compound max 1 µM, 7x7, partner max 3 µM) | 0.246 | 0.308 | 0.65 | 0.179 | 0.236 | 0.951 | 1 | 0.299 | 0.999 | 0.774 | 0.599 | 0.0638 | 0.275 | 0.881 | 1 | 0.495 | 0.466 | 0.492 | 0.26 | 0.196
CC1(C)CCC(CN2CCN(c3ccc(C(=O)NS(=O)(=O)c4ccc(NCC5CCOCC5)c([N+](=O)[O-])c4)c(Oc4cnc5[nH]ccc5c4)c3)CC2)=C(c2ccc(Cl)cc2)C1 [Venetoclax] + CN(C)CCCOc1ccc(-c2ccc3ncc4c(c3c2)n(C2CCOCC2)c(=O)n4C)cn1 [AZD0156] (first compound max 1 µM, 7x7, partner max 1 µM) | 0.104 | 0.434 | 1 | 0.194 | 0.348 | 0.227 | 0.135 | 0.343 | 0.959 | 0.406 | 0.211 | 0.947 | 0.27 | 0.262 | 0.262 | 0.278 | 0.158 | 0.128 | 0.259 | 0.113
